# Experimental data: publication PMC7156458, “Synthetic biology based construction of biological activity-related library of fungal decalin-containing diterpenoid pyrones” (Nature Communications, 2020)
# Target: Aβ42 (Homo sapiens, UniProt P05067)
# Test: Th-T (thioflavin-T) assay of Aβ42 aggregation
# Type: biochemical
# Conditions: for Th-T fluorescence of Aβ42 (sheet Fig. 7a), mean of three wells: head suffix _50 (concentration 50); for Th-T assay plate reading, mean of three wells (Supplementary Fig. 47): source data, Ab alone and No Ab as controls; for Th-T fluorescence, mean of three wells: Supplementary Fig. 47 source data
# Sequence of Aβ42 (P05067 672-713): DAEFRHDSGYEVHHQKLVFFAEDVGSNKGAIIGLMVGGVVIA
smiles,measurement,setting,value
C=C1CCC2C(C)(CCC=C(C)C)C(O)CCC2(C)C1Cc1c(OC)oc(C)c(C(=O)OC)c1=O (stereo not drawn) [Compound 14],"Th-T fluorescence of Aβ42 (sheet Fig. 7a), mean of three wells",reading M73,2.8491
same,"Th-T fluorescence of Aβ42 (sheet Fig. 7a), mean of three wells",reading M74,2.743
same,"Th-T fluorescence of Aβ42 (sheet Fig. 7a), mean of three wells",reading M75,2.678
same,"Th-T fluorescence of Aβ42 (sheet Fig. 7a), mean of three wells",reading M76,2.6047
same,"Th-T fluorescence of Aβ42 (sheet Fig. 7a), mean of three wells",reading M77,2.524
same,"Th-T fluorescence of Aβ42 (sheet Fig. 7a), mean of three wells",reading M78,2.476
same,"Th-T fluorescence of Aβ42 (sheet Fig. 7a), mean of three wells",reading M79,2.356
same,"Th-T fluorescence of Aβ42 (sheet Fig. 7a), mean of three wells",reading M80,2.329
same,"Th-T fluorescence of Aβ42 (sheet Fig. 7a), mean of three wells",reading M81,2.257
same,"Th-T fluorescence of Aβ42 (sheet Fig. 7a), mean of three wells",reading M82,2.201
same,"Th-T fluorescence of Aβ42 (sheet Fig. 7a), mean of three wells",reading M83,2.154
same,"Th-T fluorescence of Aβ42 (sheet Fig. 7a), mean of three wells",reading M84,2.095
same,"Th-T assay plate reading, mean of three wells (Supplementary Fig. 47)",measurement M1,0.2816
same,"Th-T assay plate reading, mean of three wells (Supplementary Fig. 47)",measurement M2,0.2424
same,"Th-T assay plate reading, mean of three wells (Supplementary Fig. 47)",measurement M3,0.24
same,"Th-T assay plate reading, mean of three wells (Supplementary Fig. 47)",measurement M4,0.2537
same,"Th-T assay plate reading, mean of three wells (Supplementary Fig. 47)",measurement M5,0.2619
same,"Th-T assay plate reading, mean of three wells (Supplementary Fig. 47)",measurement M6,0.2823
same,"Th-T assay plate reading, mean of three wells (Supplementary Fig. 47)",measurement M7,0.2966
same,"Th-T assay plate reading, mean of three wells (Supplementary Fig. 47)",measurement M8,0.3078
same,"Th-T assay plate reading, mean of three wells (Supplementary Fig. 47)",measurement M9,0.3225
same,"Th-T assay plate reading, mean of three wells (Supplementary Fig. 47)",measurement M10,0.3472
same,"Th-T assay plate reading, mean of three wells (Supplementary Fig. 47)",measurement M11,0.3856
same,"Th-T assay plate reading, mean of three wells (Supplementary Fig. 47)",measurement M12,0.4563
same,"Th-T assay plate reading, mean of three wells (Supplementary Fig. 47)",measurement M13,0.5559
same,"Th-T assay plate reading, mean of three wells (Supplementary Fig. 47)",measurement M14,0.6968
same,"Th-T assay plate reading, mean of three wells (Supplementary Fig. 47)",measurement M15,0.8869
same,"Th-T assay plate reading, mean of three wells (Supplementary Fig. 47)",measurement M16,1.062
same,"Th-T fluorescence, mean of three wells (Fig. 7a)","reading M107, compound at 10 (head suffix _10)",2.856
same,"Th-T fluorescence, mean of three wells (Fig. 7a)","reading M107, compound at 20 (head suffix _20)",1.717
same,"Th-T fluorescence, mean of three wells (Fig. 7a)","reading M107, compound at 50 (head suffix _50)",1.263
same,"Th-T fluorescence, mean of three wells (Fig. 7a)","reading M108, compound at 10 (head suffix _10)",2.848
same,"Th-T fluorescence, mean of three wells (Fig. 7a)","reading M108, compound at 20 (head suffix _20)",1.693
same,"Th-T fluorescence, mean of three wells (Fig. 7a)","reading M108, compound at 50 (head suffix _50)",1.239
same,"Th-T fluorescence, mean of three wells (Fig. 7a)","reading M109, compound at 10 (head suffix _10)",2.86
same,"Th-T fluorescence, mean of three wells (Fig. 7a)","reading M109, compound at 20 (head suffix _20)",1.668
same,"Th-T fluorescence, mean of three wells (Fig. 7a)","reading M109, compound at 50 (head suffix _50)",1.221
same,"Th-T fluorescence, mean of three wells (Fig. 7a)","reading M110, compound at 10 (head suffix _10)",2.89
same,"Th-T fluorescence, mean of three wells (Fig. 7a)","reading M110, compound at 20 (head suffix _20)",1.691
same,"Th-T fluorescence, mean of three wells (Fig. 7a)","reading M110, compound at 50 (head suffix _50)",1.198
same,"Th-T fluorescence, mean of three wells (Fig. 7a)","reading M111, compound at 10 (head suffix _10)",2.887
same,"Th-T fluorescence, mean of three wells (Fig. 7a)","reading M111, compound at 20 (head suffix _20)",1.674
same,"Th-T fluorescence, mean of three wells (Fig. 7a)","reading M111, compound at 50 (head suffix _50)",1.171
same,"Th-T fluorescence, mean of three wells (Fig. 7a)","reading M112, compound at 10 (head suffix _10)",2.867
same,"Th-T fluorescence, mean of three wells (Fig. 7a)","reading M112, compound at 20 (head suffix _20)",1.668
same,"Th-T fluorescence, mean of three wells (Fig. 7a)","reading M112, compound at 50 (head suffix _50)",1.153
same,"Th-T fluorescence, mean of three wells (Fig. 7a)","reading M113, compound at 10 (head suffix _10)",2.843
same,"Th-T fluorescence, mean of three wells (Fig. 7a)","reading M113, compound at 20 (head suffix _20)",1.686
same,"Th-T fluorescence, mean of three wells (Fig. 7a)","reading M113, compound at 50 (head suffix _50)",1.142
same,"Th-T fluorescence, mean of three wells (Fig. 7a)","reading M114, compound at 10 (head suffix _10)",2.88
same,"Th-T fluorescence, mean of three wells (Fig. 7a)","reading M114, compound at 20 (head suffix _20)",1.678
same,"Th-T fluorescence, mean of three wells (Fig. 7a)","reading M114, compound at 50 (head suffix _50)",1.107
same,"Th-T fluorescence, mean of three wells (Fig. 7a)","reading M115, compound at 10 (head suffix _10)",2.899
same,"Th-T fluorescence, mean of three wells (Fig. 7a)","reading M115, compound at 20 (head suffix _20)",1.649
same,"Th-T fluorescence, mean of three wells (Fig. 7a)","reading M115, compound at 50 (head suffix _50)",1.096
same,"Th-T fluorescence, mean of three wells (Fig. 7a)","reading M116, compound at 10 (head suffix _10)",2.891
same,"Th-T fluorescence, mean of three wells (Fig. 7a)","reading M116, compound at 20 (head suffix _20)",1.656
same,"Th-T fluorescence, mean of three wells (Fig. 7a)","reading M116, compound at 50 (head suffix _50)",1.094
same,"Th-T fluorescence, mean of three wells (Fig. 7a)","reading M117, compound at 10 (head suffix _10)",2.891
same,"Th-T fluorescence, mean of three wells (Fig. 7a)","reading M117, compound at 20 (head suffix _20)",1.6485
same,"Th-T fluorescence, mean of three wells (Fig. 7a)","reading M117, compound at 50 (head suffix _50)",1.063
same,"Th-T fluorescence, mean of three wells (Fig. 7a)","reading M118, compound at 10 (head suffix _10)",2.882
same,"Th-T fluorescence, mean of three wells (Fig. 7a)","reading M118, compound at 20 (head suffix _20)",1.636
same,"Th-T fluorescence, mean of three wells (Fig. 7a)","reading M118, compound at 50 (head suffix _50)",1.027
same,"Th-T fluorescence, mean of three wells (Fig. 7a)","reading M119, compound at 10 (head suffix _10)",2.895
same,"Th-T fluorescence, mean of three wells (Fig. 7a)","reading M119, compound at 20 (head suffix _20)",1.645
same,"Th-T fluorescence, mean of three wells (Fig. 7a)","reading M119, compound at 50 (head suffix _50)",1.02
same,"Th-T fluorescence, mean of three wells (Fig. 7a)","reading M120, compound at 10 (head suffix _10)",2.912
same,"Th-T fluorescence, mean of three wells (Fig. 7a)","reading M120, compound at 20 (head suffix _20)",1.644
same,"Th-T fluorescence, mean of three wells (Fig. 7a)","reading M120, compound at 50 (head suffix _50)",1.015
same,"Th-T fluorescence, mean of three wells (Fig. 7a)","reading M121, compound at 10 (head suffix _10)",2.89
same,"Th-T fluorescence, mean of three wells (Fig. 7a)","reading M121, compound at 20 (head suffix _20)",1.621
same,"Th-T fluorescence, mean of three wells (Fig. 7a)","reading M121, compound at 50 (head suffix _50)",1.008
same,"Th-T fluorescence, mean of three wells (Fig. 7a)","reading M122, compound at 10 (head suffix _10)",2.911
same,"Th-T fluorescence, mean of three wells (Fig. 7a)","reading M122, compound at 20 (head suffix _20)",1.5939
same,"Th-T fluorescence, mean of three wells (Fig. 7a)","reading M122, compound at 50 (head suffix _50)",0.9934
same,"Th-T fluorescence, mean of three wells (Fig. 7a)","reading M123, compound at 10 (head suffix _10)",2.8989
same,"Th-T fluorescence, mean of three wells (Fig. 7a)","reading M123, compound at 20 (head suffix _20)",1.589
same,"Th-T fluorescence, mean of three wells (Fig. 7a)","reading M123, compound at 50 (head suffix _50)",0.9605
same,"Th-T fluorescence, mean of three wells (Fig. 7a)","reading M124, compound at 10 (head suffix _10)",2.906
same,"Th-T fluorescence, mean of three wells (Fig. 7a)","reading M124, compound at 20 (head suffix _20)",1.657
same,"Th-T fluorescence, mean of three wells (Fig. 7a)","reading M124, compound at 50 (head suffix _50)",0.9345
same,"Th-T fluorescence, mean of three wells (Fig. 7a)","reading M125, compound at 10 (head suffix _10)",2.918
same,"Th-T fluorescence, mean of three wells (Fig. 7a)","reading M125, compound at 20 (head suffix _20)",1.601
same,"Th-T fluorescence, mean of three wells (Fig. 7a)","reading M125, compound at 50 (head suffix _50)",0.9471
same,"Th-T fluorescence, mean of three wells (Fig. 7a)","reading M126, compound at 10 (head suffix _10)",2.913
same,"Th-T fluorescence, mean of three wells (Fig. 7a)","reading M126, compound at 20 (head suffix _20)",1.6231
same,"Th-T fluorescence, mean of three wells (Fig. 7a)","reading M126, compound at 50 (head suffix _50)",0.9219
same,"Th-T fluorescence, mean of three wells (Fig. 7a)","reading M127, compound at 10 (head suffix _10)",2.92
same,"Th-T fluorescence, mean of three wells (Fig. 7a)","reading M127, compound at 20 (head suffix _20)",1.639
same,"Th-T fluorescence, mean of three wells (Fig. 7a)","reading M127, compound at 50 (head suffix _50)",0.9074
same,"Th-T fluorescence, mean of three wells (Fig. 7a)","reading M128, compound at 10 (head suffix _10)",2.916
same,"Th-T fluorescence, mean of three wells (Fig. 7a)","reading M128, compound at 20 (head suffix _20)",1.631
same,"Th-T fluorescence, mean of three wells (Fig. 7a)","reading M128, compound at 50 (head suffix _50)",0.8816
same,"Th-T fluorescence, mean of three wells",time-course reading M97,1.587
same,"Th-T fluorescence, mean of three wells",time-course reading M98,1.593
same,"Th-T fluorescence, mean of three wells",time-course reading M99,1.591
same,"Th-T fluorescence, mean of three wells",time-course reading M100,1.596
same,"Th-T fluorescence, mean of three wells",time-course reading M101,1.605
same,"Th-T fluorescence, mean of three wells",time-course reading M102,1.603
same,"Th-T fluorescence, mean of three wells",time-course reading M103,1.613
same,"Th-T fluorescence, mean of three wells",time-course reading M104,1.605
same,"Th-T fluorescence, mean of three wells",time-course reading M105,1.614
same,"Th-T fluorescence, mean of three wells",time-course reading M106,1.61
same,"Th-T fluorescence, mean of three wells",time-course reading M107,1.627
same,"Th-T fluorescence, mean of three wells",time-course reading M108,1.622
same,"Th-T fluorescence, mean of three wells",time-course reading M109,1.637
same,"Th-T fluorescence, mean of three wells",time-course reading M110,1.6366
same,"Th-T fluorescence, mean of three wells",time-course reading M111,1.648
same,"Th-T fluorescence, mean of three wells",time-course reading M112,1.658
same,"Th-T fluorescence, mean of three wells",time-course reading M113,1.641
same,"Th-T fluorescence, mean of three wells",time-course reading M114,1.648
same,"Th-T fluorescence, mean of three wells",time-course reading M115,1.646
same,"Th-T fluorescence, mean of three wells",time-course reading M116,1.651
